This is an account of results in patent US20220279826A1, “OFF-FLAVOR SUPPRESSING AGENT” (AJINOMOTO CO., INC., priority 2019, published 2022).

The nature of assay [1]: Sensory evaluation in sodium acetate aqueous solution (Experimental Example 18). The settings on record: Table 33. The procedure: Each compound shown in the following Table 33 was added to an aqueous solution prepared by dissolving sodium acetate (1 part by weight) and acetic acid (0.3 parts by weight) in water (98.7 parts by weight) (hereinafter at times referred to as sodium acetate aqueous solution) so as to achieve the concentration (addition concentration) shown in the following Table 33 to prepare each evaluation sample.
Based on the following evaluation criteria, a panel of four experts determined by consensus the intensity of off-tastes (bitter taste, harsh taste, astringent taste) derived from sodium acetate in each evaluation sample, by comparison with a sodium acetate aqueous solution without addition of any compound (negative control).

A short description of assay [2]: Sensory evaluation in Japanese noodle soup base solution with potassium chloride (0.2 g) (Experimental Example 5). Conditions: for off-taste suppressing effect: Japanese noodle soup base solution, potassium chloride 0.2 g; for intensity of off-tastes (bitter taste, metallic taste, harsh taste, astringent taste) derived from potassium chloride: base solution of Table 19. The procedure: Potassium chloride (0.2 g) was added to a commercially available Japanese noodle soup base (manufactured by Yamaki Co., Ltd.) (11.1 g), and dissolved by adding hot water (88.7 g) to prepare a base solution.
Each compound shown in the following Table 19 was added to the base solution prepared above so as to achieve the concentration (addition concentration) shown in the following Table 19 to prepare each evaluation sample.
Based on the following evaluation criteria, a panel of two experts determined by consensus the intensity of off-tastes (bitter taste, metallic taste, harsh taste, astringent taste) derived from potassium chloride in each evaluation sample, by reference to each potassium chloride aqueous solution adjusted to 0.2 wt %, 0.15 wt % or 0.1 wt %.

A short description of assay [3]: Sensory evaluation in chicken broth solution with potassium chloride (Experimental Example 3). The settings on record: chicken broth solution with 0.8 wt % potassium chloride. The method, boiled down:
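Base solution: 1.0 g powdered chicken broth mix plus 0.8 g KCl dissolved in 98.2 g hot water, giving a potassium-chloride off-taste. Compounds were added at set concentrations. Two expert panelists scored intensity of KCl-derived bitter, metallic, harsh and astringent off-tastes.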

The nature of assay [4]: Sensory evaluation of off-taste suppressing effect in 0.8 wt % potassium chloride aqueous solution (Experimental Examples 1 and 2).
A short description of assay [5]: Sensory evaluation in granular fava bean protein (Experimental Example 16). The settings on record: Table 30. How it is done:
Each compound shown in the following Table 30 was added to granular fava bean protein (manufactured by Schouten) so as to achieve the concentration (addition concentration) shown in the following Table 30 to prepare each evaluation sample.
Based on the following evaluation criteria, a panel of four experts determined by consensus the intensity of off-tastes (bitter taste, harsh taste, astringent taste) derived from fava bean protein in each evaluation sample, by comparison with granular fava bean protein without addition of any compound (negative control).

Assay [6] can be described thus: Sensory evaluation in 1.5 wt % disodium phosphate aqueous solution (Experimental Example 19). The settings on record: Table 34. How it is done: Each compound shown in the following Table 34 was added to a 1.5 wt % disodium phosphate aqueous solution (aqueous solution prepared by dissolving disodium phosphate (1.5 parts by weight) in water (98.5 parts by weight)) so as to achieve the concentration (addition concentration) shown in the following Table 34 to prepare each evaluation sample.
Based on the following evaluation criteria, a panel of four experts determined by consensus the intensity of off-tastes (bitter taste, harsh taste, astringent taste) derived from disodium phosphate in each evaluation sample, by comparison with a 1.5 wt % disodium phosphate aqueous solution without addition of any compound (negative control).

Assay [7] is described as follows: Sensory evaluation in 0.12 wt % aspartame aqueous solution (Experimental Example 12). The settings on record: Table 26. The procedure:
Each compound shown in the following Table 26 was added to a 0.12 wt % aspartame aqueous solution (an aqueous solution prepared by dissolving aspartame (0.12 parts by weight) in ion exchange water (99.88 parts by weight)) so as to achieve the concentration (addition concentration) shown in the following Table 26 to prepare each evaluation sample.
Based on the following evaluation criteria, a panel of three experts determined by consensus the intensity of off-tastes (bitter taste, harsh taste, metallic taste) derived from aspartame in each evaluation sample, by comparison with a 0.12 wt % aspartame aqueous solution without addition of any compound (negative control).

The mark [8] stands for this setting: 0.8 wt % potassium chloride aqueous solution, addition concentration 100 weight ppb (12.5 weight ppm with respect to potassium chloride).
Where [9] appears, read: in words, potassium chloride aqueous solutions, Tables 1 to 14.
Where [10] appears, read: potassium chloride aqueous solutions, Tables 1 to 14.

As for `O=Cc1ccco1` [furfural, Furfural], in assay [1], the “intensity of off-tastes (bitter taste, harsh taste, astringent taste) derived from sodium acetate” value is on record as “suppressed”. For the same compound, the off-taste suppressing effect result in assay [2] (addition concentration 50 weight ppb (25 weight ppm with respect to potassium chloride)) was “+++ (intensity of the same level as potassium chloride aqueous solution with potassium chloride concentration of less than 0.1 wt %)”; in assay [3] (addition concentration 10 ppb (1.25 weight ppm with respect to potassium chloride)) it was “+++ (intensity of the same level as potassium chloride aqueous solution with potassium chloride concentration of not less than 0.65 wt % and less than 0.7 wt %)”; in assay [4] (0.8 wt % potassium chloride aqueous solution, addition concentration 5 weight ppb (0.625 weight ppm with respect to potassium chloride)), “+ (intensity of the same level as potassium chloride aqueous solution with potassium chloride concentration of not less than 0.75 wt % and less than 0.8 wt %)”; in assay [4] (0.8 wt % potassium chloride aqueous solution, addition concentration 10 weight ppb (1.25 weight ppm with respect to potassium chloride)), “+++ (intensity of the same level as potassium chloride aqueous solution with potassium chloride concentration of not less than 0.65 wt % and less than 0.7 wt %)”; in assay [4] (0.8 wt % potassium chloride aqueous solution, addition concentration 50 weight ppb (6.25 weight ppm with respect to potassium chloride)) it was “+++ (intensity of the same level as potassium chloride aqueous solution with potassium chloride concentration of not less than 0.65 wt % and less than 0.7 wt %)”; in assay [4] (setting [8]) it was “+ (intensity of the same level as potassium chloride aqueous solution with potassium chloride concentration of not less than 0.75 wt % and less than 0.8 wt %)”. Moreover, the off-taste suppressing effect result in assay [4] (setting [9]) is recorded as “high”. Further, the “intensity of off-tastes (bitter taste, metallic taste, harsh taste, astringent taste) derived from potassium chloride” value in assay [2] and in assay [4] (setting [10]) was “decreased” each time. In addition, in assay [5], the “intensity of off-tastes (bitter taste, harsh taste, astringent taste) derived from fava bean protein” value is given as “suppressed”. In addition, in assay [6], the “intensity of off-tastes (bitter taste, harsh taste, astringent taste) derived from disodium phosphate” value is listed as “suppressed”. For the same compound, in assay [7], the “intensity of off-tastes (bitter taste, harsh taste, metallic taste) derived from aspartame” value is “suppressed”.

Consider `CCC(=O)O` [propionic acid], for which the “intensity of off-tastes (bitter taste, harsh taste, astringent taste) derived from sodium acetate” value in assay [1] is given as “suppressed”. Moreover, the off-taste suppressing effect result in assay [2] (addition concentration 1000 weight ppb (500 weight ppm with respect to potassium chloride)) was “++ (intensity of the same level as potassium chloride aqueous solution with potassium chloride concentration of not less than 0.1 wt % and less than 0.15 wt %)”; in assay [3] (addition concentration 1 ppm (125 weight ppm with respect to potassium chloride)), “+++ (intensity of the same level as potassium chloride aqueous solution with potassium chloride concentration of not less than 0.65 wt % and less than 0.7 wt %)”; in assay [4] (setting [8]), “+ (intensity of the same level as potassium chloride aqueous solution with potassium chloride concentration of not less than 0.75 wt % and less than 0.8 wt %)”; in assay [4] (0.8 wt % potassium chloride aqueous solution, addition concentration 500 weight ppb (62.5 weight ppm with respect to potassium chloride)) it was “++ (intensity of the same level as potassium chloride aqueous solution with potassium chloride concentration of not less than 0.7 wt % and less than 0.75 wt %)”; in assay [4] (0.8 wt % potassium chloride aqueous solution, addition concentration 1000 weight ppb (125 weight ppm with respect to potassium chloride)) it was “++ (intensity of the same level as potassium chloride aqueous solution with potassium chloride concentration of not less than 0.7 wt % and less than 0.75 wt %)”; in assay [4] (0.8 wt % potassium chloride aqueous solution, addition concentration 2000 weight ppb (250 weight ppm with respect to potassium chloride)) it was “++ (intensity of the same level as potassium chloride aqueous solution with potassium chloride concentration of not less than 0.7 wt % and less than 0.75 wt %)”. Moreover, the off-taste suppressing effect result in assay [4] (setting [9]) is on record as “high”. The “intensity of off-tastes (bitter taste, metallic taste, harsh taste, astringent taste) derived from potassium chloride” value in assay [2] and in assay [4] (setting [10]) was “decreased” in each case. Moreover, the “intensity of off-tastes (bitter taste, harsh taste, astringent taste) derived from fava bean protein” value in assay [5] is “suppressed”. For the same compound, the “intensity of off-tastes (bitter taste, harsh taste, astringent taste) derived from disodium phosphate” value in assay [6] is on record as “suppressed”. For the same compound, the “intensity of off-tastes (bitter taste, harsh taste, metallic taste) derived from aspartame” value in assay [7] is recorded as “suppressed”.
